What follows are compounds tested on MAPK phosphorylation in PANC-1 pancreatic cancer cell line (assay: MAPK cell-based phosphorylation assay (cell-direct ELISA, EGF stimulation)). Details: Homo sapiens.
Procedure, shortened: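 Cell-direct ELISA measured phospho-MAPK, with fluorescence read at 595 nm from AmpliFlu Red. Before fixation, PANC-1 cells starved overnight received 6 hours of compound (30 μM single dose or serial dilutions, 0.3% DMSO, 37° C), followed by 1.5 ng/ml EGF for 15 min.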

Compound | IC50 [µM]
Oc1nc(-c2ccccn2)nc2sccc12 [drawing 1081] | 11 to 30
COc1ccnc(-c2nc(O)c3c(Br)csc3n2)c1 [drawing 1133] | 2 to 10
O=C(CN1CCN(c2nc(-c3ccccn3)nc3sc(-c4ccccc4)cc23)CC1)N1CCCC1 [drawing 1091] | 2 to 10
Oc1nc(-c2ccccn2)nc2c(-c3cccc4c3OCO4)csc12 [drawing 1193] | < 2
Oc1nc(-c2ccccn2)nc2c(-c3ccccc3Cl)csc12 [drawing 1075] | < 2
O=C(c1csc2c(O)nc(-c3ccccn3)nc12)N1CCOC(c2nccs2)C1 (stereo not drawn) [drawing 1129] | > 30
Oc1nc(-c2ccccn2)nc2c(-c3ccccc3F)csc12 [drawing 1207] | 2 to 10

Same assay, conditions: Homo sapiens, * = tested at 10 μM

Compound | inhibition at 10 µM [%]
COc1cnc(-c2cn(C)cn2)nc1O [drawing 1257] | 51 to 75
COc1nc(-c2ccccn2)nc(Oc2cccc(C(F)(F)F)c2)c1OC [drawing 1312] | 0
Oc1nc(-c2ccccn2)nc2c(-c3ccc(OC4CCCC4)cc3)csc12 [drawing 1203] | 25 to 50
COCCNc1nc(-c2nccn2C)nc2sc(C)c(-c3ccccc3)c12 [drawing 1344] | 51 to 75
COCC(C)Nc1nc(-c2nccn2C)nc2sc(-c3ccccc3)c(-c3ccccc3)c12 (stereo not drawn) [drawing 1337] | 76 to 100
Oc1nc(-c2ccccn2)nc(Oc2cccc(C(F)(F)F)c2)c1O [drawing 1318] | 1 to 25
COC(C)(C)c1ccc(-c2csc3c(O)nc(-c4nccn4C)nc23)cc1 [drawing 1378] | 25 to 50
COc1cc(-c2csc3c(O)nc(-c4ccccn4)nc23)cnc1C(F)(F)F [drawing 1222] | 1 to 25
COCCNc1nc(-c2nccn2C)nc2sc(-c3ccccc3Cl)c(-c3ccccc3)c12 [drawing 1341] | 76 to 100
O=C(CCn1ccnc1)Nc1nc(-c2ccccn2)nc2sccc12 [drawing 1226] | 1 to 25
O=C(COCc1ccnc(O)c1)Nc1nc(-c2ccccn2)nc2sccc12 [drawing 1199] | 1 to 25
Oc1nc(-c2ccccn2)nc2c(-c3ccnn3-c3ccccn3)csc12 [drawing 1240] | 1 to 25
Oc1nc(-c2ccccn2)nc2c(-c3cccc4c3OCO4)csc12 [drawing 1193] | 76 to 100
Cn1ccnc1-c1nc(NCCCO)c2c(-c3ccccc3)c(-c3ccccc3)sc2n1 [drawing 1339] | 1 to 25
COCCNc1nc(-c2nccn2C)nc2sc(-c3ccccc3)c(-c3ccc(OC)cc3)c12 [drawing 1349] | 76 to 100
Cn1ccnc1-c1nc(O)c2sc(-c3ccccc3)c(-c3ccccc3)c2n1 [drawing 1348] | 51 to 75
Nc1nc(-c2ccccn2)nc2scc(C(=O)O)c12 [drawing 1242] | 1 to 25
COC(=O)c1nc(-c2ccccn2)nc(O)c1O [drawing 1307] | 0
COCCNc1nc(-c2ccccn2)nc2c1c(-c1ccccc1)nn2-c1ccccn1 [drawing 1298] | 1 to 25
Cc1sc2c(O)nc(-c3nccn3C)nc2c1-c1ccccc1 [drawing 1354] | 0

Compound | inhibition at 10 µM [%]
O=c1[nH]c(-c2ccccn2)nc2c([C@@H]3O[C@H](CO)[C@@H](O)[C@H]3O)csc12 [drawing 1287] | 1 to 25
Cc1sc2c(O)nc(-c3nccn3C)nc2c1-c1ccc(F)cc1F [drawing 1381] | 0
Oc1nc(-c2ccccn2)nc2cc(-c3ccccc3)sc12 [drawing 1322] | 25 to 50
COc1ncc(CCC(=O)Nc2nc(-c3ccccn3)nc3sccc23)cn1 | 76 to 100
Oc1nc(-c2ccccn2)nc2c(C3CCCCC3)csc12 [drawing 1272] | 25 to 50
Oc1nc(-c2ccccn2)nc2c(-c3cc(F)ccc3OC(F)F)csc12 [drawing 1202] | 1 to 25
CC(CO)Nc1nc(-c2nccn2C)nc2sc(-c3ccccc3)c(-c3ccccc3)c12 (stereo not drawn) [drawing 1338] | 25 to 50
Cn1ccnc1-c1nc(O)c2scc(-c3ccc(C(C)(C)C)cc3)c2n1 [drawing 1379] | 25 to 50
O=C(c1cc2nc(-c3ccccn3)nc(O)c2s1)N1CCN(c2ccccc2)CC1 [drawing 1188] | 1 to 25
Cc1c(-c2csc3c(O)nc(-c4ccccn4)nc23)cnn1C [drawing 1266] | 0
Oc1nc(-c2ccccn2)nc2c(-c3ccccc3F)csc12 [drawing 1207] | 76 to 100
N#Cc1cccc(-c2csc3c(O)nc(-c4ccccn4)nc23)c1 [drawing 1264] | 0
Oc1nc(-c2ccccn2)nc2c1c(-c1ccccc1)nn2-c1ccccn1 [drawing 1299] | 0
COc1nc(-c2ccccn2)nc(Oc2cccc(C(F)(F)F)c2)c1O [drawing 1325] | 1 to 25
Cn1cnc(-c2nc(O)c3c(-c4ccccc4)c(-c4ccc(CNC(=O)OC(C)(C)C)cc4)sc3n2)c1 [drawing 1297] | 0
Cc1sc2c(O)nc(-c3ccccn3)nc2c1C(=O)N1CCN(c2ccccc2)CC1 [drawing 1269] | 1 to 25
COCCNc1nc(-c2nccn2C)nc2sc(-c3ccncc3)c(-c3ccccc3)c12 [drawing 1342] | 0
Oc1nc(-c2ccccn2)nc2cc(-c3ccc(-c4ccccc4)cc3)sc12 [drawing 1319] | 25 to 50
Oc1nc(-c2ccccn2)nc2c(-c3ccc(OC4CCOCC4)cc3)csc12 [drawing 1206] | 1 to 25
Nc1nc(-c2ccccn2)nc2ccsc12 [drawing 1187] | 1 to 25

Same assay, conditions: Homo sapiens, at 30 μM

Compound | inhibition at 30 µM [%]
CCCOc1ccc2ccccc2c1CN(C)S(=O)(=O)N1CC(C)OC(C)C1 (stereo not drawn) [drawing 1051] | 1 to 25
O=C(c1csc2c(O)nc(-c3ccccn3)nc12)N1CCN(c2cccc(F)c2)CC1 [drawing 1137] | 1 to 25
O=C(Nc1nnc(-c2ccccn2)[nH]1)C1CCn2c(cnc2-c2ccccc2)C1 (stereo not drawn) [drawing 997] | 1 to 25
O=C(Nc1nnc(-c2ccccn2)[nH]1)c1ccc(CN2C(=O)CCC2=O)cc1 [drawing 1004] | 1 to 25
N#Cc1ccc(COCC(=O)Nc2nc(-c3ccccn3)nc3sccc23)cc1 [drawing 1161] | 1 to 25
O=[N+]([O-])c1cc(C(F)(F)F)ccc1Sc1nc2c(c(C(F)(F)F)n1)CCCC2 | 1 to 25
O=C(c1csc2c(O)nc(-c3ccccn3)nc12)N1CCNC(c2ccccc2F)C1 (stereo not drawn) [drawing 1153] | 1 to 25
Oc1nc(-c2ccccn2)nc2sccc12 [drawing 1081] | 1 to 25
c1ccc(-c2csc3nc(-c4ccccn4)nc(N4CCN(Cc5cccnc5)CC4)c23)cc1 [drawing 1087] | 1 to 25
O=C(c1csc2c(O)nc(-c3ccccn3)nc12)N1CCC(N2CCOCC2)CC1 [drawing 1067] | 1 to 25
Cc1nc2nc(C(F)(F)F)nn2c(C)c1CC(=O)Nc1nnc(-c2ccccn2)[nH]1 [drawing 1020] | 1 to 25
O=C(NCCc1cnc(O)nc1)c1csc2nc(-c3ccccn3)nc(N3CCOCC3)c12 [drawing 1169] | 25 to 50
O=C(Nc1nc(-c2ccccn2)cs1)c1ccncc1 [drawing 1034] | 25 to 50
COc1cc(OC)cc(N2CCN(C(=O)c3csc4c(O)nc(-c5ccccn5)nc34)CC2)c1 [drawing 1140] | 1 to 25
Nc1nc(-c2ccccn2)nc2sccc12 [drawing 1180] | 1 to 25
Cc1cccc(CN(Cc2ccccn2)Cc2nccn2C)c1 [drawing 1045] | 25 to 50
COc1ccnc(-c2nc(O)c3c(Br)csc3n2)c1 [drawing 1133] | 76 to 100
O=C(Nc1nnc(-c2ccccn2)[nH]1)C1CCCC1 [drawing 1008] | 1 to 25
O=C(CN1CCN(c2nc(-c3ccccn3)nc3sc(-c4ccccc4)cc23)CC1)N1CCCC1 [drawing 1091] | 76 to 100
CN(CC(=O)N1CCOCC1)c1nc(-c2ccccn2)nc2scc(-c3ccccc3)c12 [drawing 1094] | 1 to 25

Compound | inhibition at 30 µM [%]
N#Cc1cccc(N2CCN(C(=O)c3csc4c(O)nc(-c5ccccn5)nc34)CC2)c1 [drawing 1139] | 1 to 25
O=C(c1csc2c(O)nc(-c3ccccn3)nc12)N1CCN(Cc2ccc(O)c(Cl)c2)CC1 [drawing 1147] | 25 to 50
COc1ccc(CCC(=O)Nc2nnc(-c3ccccn3)[nH]2)cc1F [drawing 994] | 51 to 75
COc1cc(N2CCN(C(=O)c3csc4c(O)nc(-c5ccccn5)nc34)CC2)ccc1O [drawing 1179] | 25 to 50
COc1ccc2c(ccn2CC(=O)Nc2nnc(-c3ccccn3)[nH]2)c1 [drawing 1000] | 1 to 25
Oc1nc(-c2ccccn2)nc2c(-c3ccccc3Cl)csc12 [drawing 1075] | 76 to 100
COCCN(CCOC)c1nc(-c2ccccn2)nc2scc(C(=O)NCCc3ccc(OC)nc3)c12 [drawing 1157] | 1 to 25
COc1cnc(CNC(=O)Cn2cnc3nc(-c4ccccn4)nc(N4CCOCC4)c32)[nH]c1=O [drawing 1183] | 1 to 25
O=C(c1csc2c(O)nc(-c3ccccn3)nc12)N1CCNC(c2ccc(F)cc2)C1 (stereo not drawn) [drawing 1167] | 1 to 25
O=S1(=O)CCC(N2CCN(c3nc(-c4ccccn4)nc4scc(-c5ccccc5)c34)CC2)C1 (stereo not drawn) [drawing 1093] | 1 to 25
CS(=O)(=O)Cc1ccc(C(=O)Nc2nc(-c3ccccn3)cs2)cc1 [drawing 1029] | 1 to 25
O=C(Nc1nnc(-c2ccccn2)[nH]1)c1ccn(-c2cccc(F)c2)n1 [drawing 999] | 1 to 25
CC(Oc1ccc(C(=O)Nc2nnc(-c3ccccn3)[nH]2)cn1)c1ccccc1 (stereo not drawn) [drawing 1014] | 25 to 50
O=C(Nc1nnc(-c2ccccn2)[nH]1)C1CC(=O)N(Cc2cccc(C(F)(F)F)c2)C1 (stereo not drawn) [drawing 1024] | 25 to 50
O=C(c1csc2c(O)nc(-c3ccccn3)nc12)N1CCOC(c2nccs2)C1 (stereo not drawn) [drawing 1129] | 25 to 50
O=C(CC1C=CCC1)Nc1nnc(-c2ccccn2)[nH]1 (stereo not drawn) [drawing 1005] | 1 to 25
O=C(CNc1nc(-c2ccccn2)nc2scc(-c3ccccc3)c12)NC1CC1 [drawing 1097] | 25 to 50
O=C(Cc1cccc(F)c1)Nc1nc(-c2ccccn2)cs1 [drawing 1033] | 1 to 25
O=C(Cc1c[nH]c2ccccc12)Nc1nnc(-c2ccccn2)[nH]1 [drawing 996] | 51 to 75
CN(CCCc1n[nH]c(N)c1C#N)c1nc(-c2ccccn2)nc2sc(-c3ccccc3)cc12 [drawing 1090] | 25 to 50

From US10940139B2, “Compounds that interact with the Ras superfamily for the treatment of cancers, inflammatory diseases, rasopathies, and fibrotic disease” (Shy Therapeutics LLC, priority 2017, dated 2021)
